Laboratory results from ChEMBL document CHEMBL1201862, “PubChem BioAssay data set” (2004).
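Where inhibition never reached the appropriate level, the endpoint shown equals the highest concentration tested. Otherwise, values were interpolated linearly from a five-concentration, 48-hour dose response in 96-well plates. GI50 marks 50% less growth.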 Activity calls are given as the source filed them. Rule as the data show it: active = GI50 up to about 1.1 µM and inactive = higher.

What was measured:
Assay in all cases: inhibition of tumour cell growth, NCI panel, 48 h
NCI-H460 = test system: NCI-H460
LOX IMVI = test system: LOX IMVI
Malme-3M = test system: Malme-3M
OVCAR-4 = test system: OVCAR-4
M19-MEL = test system: M19-MEL
MOLT-4 = test system: MOLT-4
Hs-578T = test system: Hs-578T
KM12 = test system: KM12
HCT-15 = test system: HCT-15
HT-29 = test system: HT-29
SK-MEL-28 = test system: SK-MEL-28
NCI-H522 = test system: NCI-H522
HOP-62 = test system: HOP-62
T47D = test system: T47D
IGROV-1 = test system: IGROV-1
NCI-H226 = test system: NCI-H226
SK-MEL-5 = test system: SK-MEL-5
RXF 393 = test system: RXF 393
HCT-116 = test system: HCT-116
RPMI-8226 = test system: RPMI-8226

Row | SMILES | GI50 (NCI-H460) | GI50 (LOX IMVI) | GI50 (Malme-3M) | GI50 (OVCAR-4) | GI50 (M19-MEL) | GI50 (MOLT-4) | GI50 (Hs-578T) | GI50 (KM12) | GI50 (HCT-15) [µM] | GI50 (HT-29) | GI50 (SK-MEL-28) | GI50 (NCI-H522) | GI50 (HOP-62) | GI50 (T47D) | GI50 (IGROV-1) | GI50 (NCI-H226) | GI50 (SK-MEL-5) | GI50 (RXF 393) | GI50 (HCT-116) | GI50 (RPMI-8226)
1 | N=C(N)NS(=O)(=O)c1ccc(NC(=O)c2cccc3c(O)c4ccccc4nc23)cc1 | > 100 µM (inactive) | > 75 µM (inactive) | > 100 µM (inactive) | > 100 µM (inactive) | > 100 µM (inactive) | > 83 µM (inactive) | > 100 µM (inactive) | > 100 µM (inactive) | > 100 | > 100 µM (inactive) | > 100 µM (inactive) | > 100 µM (inactive) | > 78.5 µM (inactive) | > 100 µM (inactive) | 81.5 µM (inactive) | > 100 µM (inactive) | > 100 µM (inactive) | > 41 µM (inactive) | > 100 µM (inactive) | > 100 µM (inactive)
2 | CC(=O)OCC1OC(n2c(=O)n(-c3ccccc3)c(=O)c3cc(Br)cc(Br)c32)C(OC(C)=O)C(OC(C)=O)C1OC(C)=O (centres undefined) | > 100 µM (inactive) | > 100 µM (inactive) | > 100 µM (inactive) | 7.5 µM (inactive) | > 100 µM (inactive) | > 100 µM (inactive) |  | > 100 µM (inactive) | > 100 | > 100 µM (inactive) | > 100 µM (inactive) | > 100 µM (inactive) | 88.7 µM (inactive) |  | > 100 µM (inactive) | > 100 µM (inactive) | > 100 µM (inactive) | 48.1 µM (inactive) | > 100 µM (inactive) | > 100 µM (inactive)
3 | Cc1cc(C)c2c(c1)N[S@@](=O)S2 | 21.8 µM (inactive) | 15.3 µM (inactive) | 25.2 µM (inactive) | 23.1 µM (inactive) | 21.7 µM (inactive) | 25.8 µM (inactive) |  | 24 µM (inactive) | 16.5 | 20.2 µM (inactive) | 28 µM (inactive) | 17.4 µM (inactive) | 57.9 µM (inactive) |  | 19.4 µM (inactive) | 19.2 µM (inactive) | 29.9 µM (inactive) | 10.6 µM (inactive) | 17.1 µM (inactive) | 34.7 µM (inactive)
4 | O=S1OC(c2ccccc2)(c2ccccc2)C(c2ccccc2)(c2ccccc2)O1 | > 30.1 µM (inactive) | 2.56 µM (inactive) | > 100 µM (inactive) | 45.2 µM (inactive) | > 86.7 µM (inactive) | 5.26 µM (inactive) |  | 5.43 µM (inactive) | > 30.3 | 7.36 µM (inactive) | > 100 µM (inactive) | > 50.1 µM (inactive) | > 100 µM (inactive) |  | > 100 µM (inactive) | > 100 µM (inactive) | 15.4 µM (inactive) | > 72.1 µM (inactive) | 4.61 µM (inactive) | 5.15 µM (inactive)
